The results in this text go back to ChEMBL document CHEMBL5244207, “Phenanthrenes: A Promising Group of Plant Secondary Metabolites” (J Nat Prod, 2018).

Converted amounts (≈) assume the structure as drawn. “And” between values parts separate entries of the source, which are not always exact repeats. Equal entries are not always repeated.

Experiment [1] is described as follows: Antioxidant activity assessed as DPPH radical scavenging activity. In kind it is functional. On the technique in general: DPPH is a stable violet radical that fades when it is reduced.
The subject of experiment [2] is MeWo. In words: Cytotoxicity against human MeWo cells by MTT assay. It is filed as functional, cell-based. For orientation: Tetrazolium assays rely on reduction of a dye to a coloured formazan, in cell work by metabolically active cells.
The test system of experiment [3] is CHO. As to the kind of experiment: Cytotoxicity against CHO cells by MTT assay. It is filed as functional, cell-based. Particulars: Cricetulus griseus.
In experiment [4] the test system is CT26.WT. In words: Cytotoxicity against mouse CT26.WT cells by MTT assay. In kind it is functional, cell-based.
Experiment [5] has as its system B16-F10. As to the kind of experiment: Cytotoxicity against mouse B16-F10 cells by MTT assay. It is filed as functional, cell-based.
In experiment [6] the test system is BV-2. In words: Antiinflammatory activity in mouse BV2 cells assessed as reduction in LPS-induced nitric oxide production at 10 uM relative to control. On the set-up: scale not given: the % may be the effect or the level left. It is filed as functional.
Experiment [7] is described as follows: Antioxidant activity assessed as hydrogen peroxide scavenging activity. In kind it is functional.
Experiment [8] relates to HaCaT. As to the kind of experiment: Antiinflammatory activity against human HaCaT cells assessed as inhibition of PGE2 production. In kind it is functional, cell-based.
The subject of experiment [9] is BV-2. As to the kind of experiment: Antiinflammatory activity in mouse BV2 cells assessed as reduction in LPS-induced nitric oxide production. In kind it is functional, cell-based.
The nature of experiment [10]: Inhibition of H2O2-induced ROS production in human HaCaT cells. In kind it is functional, cell-based.
For experiment [11], the system named is RAW264.7. In words: Antiinflammatory activity in mouse RAW 264.7 cells assessed as inhibition of LPS-induced nitric oxide production measured after 48 hrs by Griess reagent assay. In kind it is functional, cell-based. Conditions: RAW264.7, 48 h. In general terms: The Griess reaction detects nitrite, a stable product of nitric oxide.
Experiment [12] deals with RAW264.7. In words: Antiinflammatory activity in mouse RAW264.7 cells assessed as reduction in LPS-induced nitric oxide production. It is filed as functional, cell-based.
A short description of experiment [13]: Antioxidant activity assessed as ABTS radical scavenging activity. It is filed as functional.
Experiment [14] in a line: Antioxidant activity assessed as DPPH radical scavenging activity at 20 uM relative to control. In kind it is functional.
Experiment [15] can be described thus: Antioxidant activity assessed as DPPH radical scavenging activity incubated for 30 mins by spectrophotometric analysis. It is filed as functional.
Experiment [16] concerns HL-60. As to the kind of experiment: Cytotoxicity against human HL-60 cells assessed as reduction in cell viability. In kind it is functional, cell-based.
Experiment [17] deals with Pichia kudriavzevii. In words: Antifungal activity against Candida krusei assessed as inhibition of fungal growth measured after 48 hrs by CLSI based agar dilution method. It is filed as functional, organism-based.
For experiment [18], the system named is RAW264.7. As to the kind of experiment: Antiinflammatory activity against mouse RAW264.7 cells assessed as inhibition of LPS-induced COX2 expression. In kind it is functional, cell-based.
Experiment [19] relates to Mus musculus. As to the kind of experiment: Anxiolytic activity in mouse assessed as increase in time spent in open arm at 5 mg/kg, po measured after 60 mins by elevated plus maze test. It is filed as functional. Particulars: 1 h.
The subject of experiment [20] is Mus musculus. As to the kind of experiment: Anxiolytic activity in mouse assessed as number of entries in open arm at 5 mg/kg, po measured after 60 mins by elevated plus maze test. It is filed as functional. Particulars: 1 h.
The test system of experiment [21] is A549. In words: Cytotoxicity against human A549 cells assessed as reduction in cell viability. It is filed as functional, cell-based.
Experiment [22] deals with K562. In words: Cytotoxicity against human K562 cells assessed as reduction in cell viability. In kind it is functional, cell-based.
The subject of experiment [23] is SGC-7901. In words: Cytotoxicity against human SGC-7901 cells assessed as reduction in cell viability. Conditions: sgc-7901. It is filed as functional, cell-based.
Experiment [24] deals with Staphylococcus aureus. As to the kind of experiment: Antibacterial activity against Staphylococcus aureus ATCC 25923 assessed as inhibition of bacterial growth. In kind it is functional, organism-based.
The test system of experiment [25] is Staphylococcus aureus. In words: Antibacterial activity against Staphylococcus aureus ATCC 43300 assessed as inhibition of bacterial growth. In kind it is functional, organism-based.
Experiment [26] relates to Staphylococcus aureus. In words: Antibacterial activity against Staphylococcus aureus ATCC 29213 assessed as inhibition of bacterial growth. In kind it is functional, organism-based.
Experiment [27] is described as follows: Inhibition of elastase (unknown origin). Also noted: species or system Homo sapiens.

As for `COc1ccc(O)c(C(C)(C)C)c1.COc1ccc(O)cc1C(C)(C)C` [BUTYLATED HYDROXYANISOLE], the 50% inhibitory concentration (IC50) (in general, the concentration that inhibits the measured activity by half) in experiment [1] amounted to 9.3 µg/mL.

`O=c1[nH]cc(F)c(=O)[nH]1` [FLUOROURACIL]: the IC50 is 8 µg/mL (≈ 61.5 µM) in [2], 12 µg/mL (≈ 92.3 µM) in experiment [3], 5 µg/mL (≈ 38.4 µM) in [4] and 4 µg/mL (≈ 30.8 µM) in experiment [5].

Turning to `Cc1c(O)cc2c3c1CCc1c(C)c(O)cc(c1-3)C2C`, the Activity in experiment [6] turned out to be 11.2%.

Consider `COc1cc(O)c2c(c1)CCc1cc(O)c(-c3c(OC)cc(O)c4c3ccc3cc(O)ccc34)cc1-2`, for which the concentration for half-maximal inhibition (IC50) in experiment [1] turned out to be 12.9 µg/mL.

With `COc1cc2c(cc1O)CCc1cc(O)cc(OC)c1-2`, the IC50 came to 9 µM in experiment [1] (read-out: IC50); 0.04 µM in experiment [7]; 19.3 µM in experiment [8]; 19.4 µM in [9]; 9.4 µM in experiment [10].

Regarding `C=Cc1c(C)c(O)cc2c1ccc1c(C)c(O)ccc12`, in experiment [11], the 50% inhibitory concentration (IC50) was determined as 3.2 µM.

For `COc1c(O)cc2c3c1COc1cc(O)c(Cc4ccc(O)cc4)c(c1-3)CC2`, the concentration for half-maximal inhibition (IC50) in experiment [12] (Mus musculus, RAW264.7) came out at 20.8 µM.

Consider `COC(C)c1cc(O)cc2ccc3c(C)c(O)ccc3c12` (stereo not given), for which the 50% inhibitory concentration (IC50) in [12] (Mus musculus, RAW264.7) turned out to be 11.1 µM; in experiment [12] (raw264.7), 16.3 µM.

As to `COc1cc(O)c2c(c1)CCc1cc(O)c(-c3c(/C=C/c4cccc(O)c4)cc(O)cc3OC)cc1-2`, the EC50 – broadly, the concentration needed to bring the measured effect to its halfway point – in [1] amounted to 47.3 µM.

Take `COc1ccc2ccc3ccc(O[C@@H]4O[C@H](CO)[C@@H](O)[C@H](O)[C@H]4O)c(O)c3c2c1`: the IC50 in experiment [1] (read-out: IC50) is 0.2 µM; in experiment [9] it was 10.6 µg/mL.

For the molecule `C=Cc1cc(O)cc2c1-c1cc(-c3c(O)cc(C=C)c4c3ccc3c(C)c(O)ccc34)c(O)c(C)c1CC2`, the IC50 in [12] (Mus musculus, RAW264.7) came out at 7.4 µM.

Consider `COc1cc(O)cc2cc(O)c3cccc(OC)c3c12`, for which the half-inhibitory concentration (IC50) in experiment [1] (read-out: IC50) amounted to 59.8 µM.

As for `O=C1O[C@H]([C@@H](O)CO)C(O)=C1O` [ASCORBIC ACID], the Activity was 88.7% in [13] and 2.9% in [14]. In addition, the IC50 in [1] (read-out: IC50) turned out to be 18 µM; in [15], 0.41 µM.

As for `COc1cc(O)c2c(c1-c1c(OC)cc(O)c3c1ccc1cc(O)ccc13)CCc1cc(O)ccc1-2`, the half-inhibitory concentration (IC50) in [1] worked out at 15.1 µg/mL; in [16] (Homo sapiens, HL-60, read-out: IC50) it was 7.3 µg/mL.

As to `Oc1cc2c3c(c1)COc1cc(O)cc(c1-3)CC2`, the IC50 in experiment [1] (read-out: IC50) was 6.6 µM; in experiment [7] it was 0.08 µM.

As to `COc1cc(O)c2c(ccc3cc(O)ccc32)c1-c1c(OC)cc(O)c2c1ccc1cc(O)ccc12`, the IC50 in [1] amounted to 9.4 µg/mL.

Consider `OC(Cn1cncn1)(Cn1cncn1)c1ccc(F)cc1F` [FLUCONAZOLE], for which the IC50 in experiment [17] stood at 32 µg/mL (≈ 104 µM).

In the case of `COc1cc(OC)c2c(ccc3cc(OC)c(O)cc32)c1`, the half-inhibitory concentration (IC50) in experiment [18] is 1.8 µM.

For the molecule `CN1C(=O)CN=C(c2ccccc2)c2cc(Cl)ccc21` [DIAZEPAM], in experiment [19], the Time worked out at 111.9 s. For the same molecule, the Activity in [20] is reported as 13.6.

In the case of `COc1c(O)cc2c3c1COc1cc(O)cc(c1-3)CC2`, in experiment [1], the EC50 is 8.8 µM. Besides, the half-maximal inhibitory concentration (IC50) in experiment [1] (read-out: IC50) turned out to be 8.4 µM; in experiment [7], 0.03 µM; in experiment [8], 12.2 µM; in experiment [10], 8.8 µM.

Regarding `COc1cc(O)c2c(c1)CCc1cc(-c3c(OC)cc(O)c4c3CCc3cc(O)ccc3-4)c(O)cc1-2`, the IC50 in experiment [21] is 1.2 µM; in experiment [16] (hl-60) it was 4 µM; in [22] it was 2.8 µM; in experiment [23] it was 6.1 µM.

`C[C@@H]1O[C@@H](OC[C@H]2O[C@@H](Oc3c(-c4ccc(O)c(O)c4)oc4cc(O)cc(O)c4c3=O)[C@H](O)[C@@H](O)[C@@H]2O)[C@H](O)[C@H](O)[C@H]1O` [RUTIN]: the half-inhibitory concentration (IC50) in experiment [1] is 2.5 µg/mL.

Take `OC[C@H]1O[C@@H](O[C@H]2[C@H](O)[C@@H](O)[C@H](Oc3ccc4ccc5ccc(O)cc5c4c3O)O[C@@H]2CO)[C@H](O)[C@@H](O)[C@@H]1O`: the IC50 in [9] turned out to be 15.3 µg/mL.

For the molecule `COc1cc(O)c(-c2c(O)cc(OC)c3c2ccc2cc(O)ccc23)c2ccc3cc(O)ccc3c12` [CIRRHOPETALANTHIN], the half-inhibitory concentration (IC50) in experiment [24], in experiment [25] and in experiment [26] was 6.25 µg/mL (≈ 13.1 µM) throughout.

`O=c1cc(N2CCOCC2)oc2c(-c3ccccc3)cccc12` [LY-294002] returned an IC50 in [27] of 4.8 µM.

For `Oc1ccc(/C=C/c2cc(O)cc(O)c2)cc1` [RESVERATROL], the concentration giving a half-maximal response (EC50) in [1] worked out at 21.2 µM. In addition, the IC50 in [1] (read-out: IC50) turned out to be 28.7 µM.

On to `COc1c(O)cc2ccc3c(OC)c(O)ccc3c2c1OC`, for which the IC50 in experiment [1] (read-out: IC50) amounted to 12.9 µM.

Take `COc1cc(O)c2c(c1)CCc1cc(O)ccc1-2` [LUSIANTHRIDIN]: in experiment [1], the 50% effective concentration (EC50) was determined as 22.3 µM. For the same molecule, the half-inhibitory concentration (IC50) in [1] (read-out: IC50) is 62.2 µM and 22.3 µM; in [11] it was 4.6 µM.
